# From PubChem BioAssay AID1417 (Emory University Molecular Libraries Screening Center, 2008)
# Molecular target: Induced myeloid leukemia cell differentiation protein Mcl-1 (Homo sapiens) (UniProt Q07820)
# Assay: Mcl-1/Noxa binding inhibitor potency, dose response, biochemical, TR-FRET (AID 1417)
# Conditions: Mcl-1/Noxa peptide interaction, cell-free TR-FRET (terbium/rhodamine), 2 h; measured here: absolute IC50
# Induced myeloid leukemia cell differentiation protein Mcl-1 (Homo sapiens), sequence (Q07820 whole entry, looked up): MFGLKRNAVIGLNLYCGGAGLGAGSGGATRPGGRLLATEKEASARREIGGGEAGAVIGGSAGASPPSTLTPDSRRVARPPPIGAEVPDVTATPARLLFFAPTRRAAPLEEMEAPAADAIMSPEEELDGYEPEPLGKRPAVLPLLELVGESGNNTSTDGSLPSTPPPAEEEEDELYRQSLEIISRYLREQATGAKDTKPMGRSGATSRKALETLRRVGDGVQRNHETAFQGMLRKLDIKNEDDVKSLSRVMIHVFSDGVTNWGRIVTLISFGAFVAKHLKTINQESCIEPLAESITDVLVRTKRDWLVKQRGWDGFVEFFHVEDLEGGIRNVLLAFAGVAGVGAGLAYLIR
row,Structure (SMILES),IC50
1,COc1ccc(NC(=O)Cn2ncc(Cl)c(Cl)c2=O)cc1S(=O)(=O)N1CCOCC1,4.88 µM
2,COc1ccccc1CNC(=O)COC(=O)c1cc(-c2ccco2)nc2ccccc12,1.8 µM
3,O=C(O)CCCN1C(=O)/C(=C/c2cn(-c3ccccc3)nc2-c2cccs2)SC1=S,1.54 µM
4,CC1=C(C#N)C(=O)NC(=O)/C1=C\c1ccc(-c2ccc(C)cc2[N+](=O)[O-])o1,< 0.4 µM
5,O=C(O)CSc1cc(C(=O)c2ccccc2O)cn2c(=O)c3c4c(sc3nc12)CCCC4,3.38 µM
6,O=C(Cn1c(=O)n(-c2ccccc2)c(=O)c2sccc21)N1CCCC1,> 54 µM
7,O=C(O)c1ccc(N/N=C/C2=C(N3CCOCC3)C(=C\c3ccccc3)/CC2)cc1,2.02 µM
8,Nc1cccnc1Sc1cc(Cl)c(Cl)cc1Cl,> 54 µM
9,Brc1ccc(C2Nc3cccc4cccc(c34)N2)s1,< 0.4 µM
10,COc1cc(C2C(C#N)=C(N)OC3=C2C(=O)CCC3)c([N+](=O)[O-])cc1OC (configuration not stated),5.16 µM
11,Oc1ccc(/C=N/N=C(c2ccccc2)c2ccccc2)c(O)c1O,< 0.4 µM
12,Cc1nn(CC(=O)Nc2ccc(N(C)C)cc2)c(C)c1[N+](=O)[O-],> 54 µM
13,CC(=O)c1ccc2c(c1)C1C=CCC1C(C(=O)O)N2 (configuration not stated),< 0.4 µM
14,COc1cccc(C(Nc2ccccn2)c2oc(CO)cc(=O)c2O)c1 (configuration not stated),< 0.4 µM
15,CCN(CC)c1ccc(NC(=O)CCNC(=O)c2ccco2)cc1,> 54 µM
16,COc1ccccc1N1C(=O)C(Cl)=C(Nc2ccccc2O)C1=O,> 54 µM
17,O=C(O)c1ccc(N/N=C/c2ccc(OC(=O)c3cccc(Cl)c3)cc2)cc1,7.31 µM
18,O=C(NCC1CCCO1)c1ccc(Cn2c(=S)[nH]c3ccccc3c2=O)cc1 (configuration not stated),> 54 µM
19,CCCCNC(=O)c1ccc2nc(-c3ccco3)c(-c3ccco3)nc2c1,< 0.4 µM
20,Cc1ccc2[nH]c(O)c(N=Nc3nc4ccccc4s3)c2c1,2.48 µM
21,N#C/C(=C(/O)c1ccc(-c2cccc([N+](=O)[O-])c2)o1)c1nc2ccccc2s1,5.71 µM
22,O=C1/C(=C/c2ccco2)SC(=S)N1c1cccnc1,> 54 µM

row,Structure (SMILES),IC50
1,Cc1cc(C)c(S(=O)(=O)NCc2cn3c(C)csc3n2)cc1C,> 54 µM
2,CCN(c1ccc(NC(=O)COC(=O)/C=C/c2cccs2)cc1)C(C)C,3.81 µM
3,O=C1NN(c2ccc(F)c(Cl)c2)C(=O)/C1=C\c1cccc(OC(=O)c2cccs2)c1,6.86 µM
4,Cc1ccc(NS(=O)(=O)c2cc([N+](=O)[O-])ccc2NNC(=S)Nc2cccc(Cl)c2)c(C)c1,> 54 µM
5,Cc1c(O)ccc(/C=N/Nc2nc(-c3cccnc3)nc3ccccc23)c1O,< 0.4 µM
6,Nc1c(C(=O)NCCN2CCOCC2)c2nc3ccccc3nc2n1Cc1ccco1,> 54 µM
7,COc1ccccc1NC1=C(NC(C)=O)C(=O)c2ccccc2C1=O,2.48 µM
8,COc1cccc(C(=O)Nc2cc(Cl)c(O)c(Cl)c2)c1,> 54 µM
9,NC(=O)c1c(Nc2nc3c(F)cccc3s2)sc2c1CCCC2,< 0.4 µM
10,Cc1nc(S/C(=C\c2ccc(-c3ccc(C(=O)O)c(Cl)c3)o2)C(=O)O)n[nH]1,< 0.4 µM
11,CCCOc1ncnc2c1[nH]c1ccccc12,> 54 µM
12,N#Cc1cc(-c2ccccc2)nn1-c1ccccc1,< 0.4 µM
13,Cc1ccc(NC(=O)CSc2nnc(-c3ccco3)c(-c3ccco3)n2)cc1,3.29 µM
14,CC(C)c1nc2sc3c(=O)[nH]c(=S)[nH]c3c2c2c1CCC2,7.39 µM
15,O=C(CSc1n[nH]c(=O)[nH]c1=O)Nc1ccc2c(c1)C(=O)c1ccccc1C2=O,> 54 µM
16,Cc1c2c(=O)n(-c3nc4ccccc4s3)nc-2cc(O)n1Cc1ccccc1,5.62 µM
17,CCNC(=O)COC(=O)c1cc(-c2ccco2)nc2ccccc12,1.81 µM
18,COc1ccccc1N1C(=O)C2ON(c3ccccc3)C(c3ccc(N(C)C)cc3)C2C1=O (configuration not stated),> 54 µM
19,CC(C)CCC(CCN1CCCC1)c1ccc2c(c1)OCO2 (configuration not stated),> 54 µM
20,O=C(NCCO)Nc1ccc2nc(-c3ccco3)c(-c3ccco3)nc2c1,< 0.4 µM
21,COc1ccc(-c2csc(NC(=O)CSc3nc(C)nc4sc(C(=O)O)c(C)c34)n2)cc1,8.23 µM
22,Cc1ccc(C(=O)OCC(=O)Nc2ccc(N(C)C)cc2)cc1NC(=O)c1ccco1,> 54 µM

row,Structure (SMILES),IC50
1,CC(C)OC(=O)Cn1cnc2ccc(Br)cc2c1=O,> 54 µM
2,O=C(O)CCN1C(=O)/C(=C/c2cn(-c3ccccc3)nc2-c2cccs2)SC1=S,> 54 µM
3,Cc1ccc(N=C2NC(=O)/C(=C/C=C/c3ccco3)S2)cc1,7.16 µM
4,Oc1[nH]c2ccccc2c1N=Nc1nc2ccccc2s1,5.01 µM
5,COc1ccc(N2CCC(CNC(=O)Nc3cccc(OC)c3)C2)cc1 (configuration not stated),> 54 µM
6,CN(C)S(=O)(=O)c1cccc(-c2nn(-c3ccccc3)cc2/C=C2\SC(=S)N(CC(=O)O)C2=O)c1,4.28 µM
7,CC(=O)N1C(=O)/C(=C2\SC(=S)N(NC(=O)c3ccc(O)cc3)C2=O)c2ccccc21,1.55 µM
8,CCc1cc(C(=O)N=Nc2c(O)[nH]c3ccc([N+](=O)[O-])cc23)c2ccccc2n1,5.99 µM
9,CCC1=NN2C(=N)/C(=C\c3ccc(OCc4cc(=O)n5nc(CC)sc5n4)c(OC)c3)C(=O)N=C2S1,2.31 µM
10,CN1CCN(S(=O)(=O)c2ccc(NC(=S)NC(=O)c3ccc(Cl)cc3)cc2)CC1,3.59 µM
11,CC(C)C(C(=O)O)N1C(=O)/C(=C/C=C/c2ccco2)SC1=S (configuration not stated),< 0.4 µM
12,Cc1[nH]n(-c2ccc(Br)cc2)c(=O)c1C=Nc1ccc(S(=O)(=O)Nc2nccs2)cc1,8.08 µM
13,O=C1C(=Cc2cccn2-c2ccccc2)C(=O)c2ccccc21,5.19 µM
14,O=c1c(-c2c(O)cc(O)c3c(=O)cc(-c4ccc(O)cc4)oc23)c(-c2ccc(O)cc2)oc2cc(O)cc(O)c12,> 54 µM
15,COc1cc(NCCC(=O)c2cccs2)c(OC)cc1Cl,> 54 µM
16,C=CCN=c1scc(-c2ccco2)n1/N=C/c1ccc(O)c(O)c1O,> 54 µM
17,COc1ccc(N2CCC(CNC(=O)Nc3ccc(Cl)cc3)C2)cc1 (configuration not stated),51.7 µM
18,Cc1nc(NC(=O)c2ccccc2)sc1-c1csc(Nc2ccc(C(=O)O)cc2)n1,3.6 µM
19,Cc1ccc(C(=O)NNc2c3ccccc3nc3ccccc23)cc1,9.97 µM
20,COc1cc(C(Nc2ccccn2)c2ccc3ccc(C)nc3c2O)cc(OC)c1O (configuration not stated),< 0.4 µM
21,CN(C)c1ccc(NC(=O)Nc2ccc3snnc3c2)cc1,< 0.4 µM
22,CN(CCC#N)C(=O)COC(=O)c1c2c(nc3ccccc13)/C(=C/c1ccco1)CC2,1.63 µM

row,Structure (SMILES),IC50
1,Cc1ccc([N+](=O)[O-])cc1N=Nc1c(-c2ccc([N+](=O)[O-])cc2)[nH]n(C(N)=S)c1=O,< 0.4 µM
2,CC1=C(C(=O)OCC(C)C)C(c2ccsc2)NC(=O)N1 (configuration not stated),> 54 µM
3,CC(OC(=O)c1cccc(N2C(=O)c3ccccc3C2=O)c1)C(=O)Nc1ccc(N(C)C)cc1 (configuration not stated),> 54 µM
4,O=[N+]([O-])c1ccc(/C=N/NC(=S)Nc2ccc(Cl)cc2Cl)s1,1.34 µM
5,CCn1c(C)nc2cc(C(=O)N/N=C/c3ccc(O)c(O)c3O)ccc21,< 0.4 µM
6,COC(=O)N/N=C/c1cc(N=Nc2ccccc2Cl)ccc1O,3.74 µM
7,CN1CCc2cccc3c2[C@H]1Cc1ccc(O)c(O)c1-3,< 0.4 µM
8,C/C(=N/NC(=O)c1cc2ccccc2cc1O)C1C(=O)c2ccccc2C1=O,0.919 µM
9,CC(/C=C/c1ccco1)=N\NC(=O)c1cc(C)[nH]n1,5.64 µM
10,CC(C)c1ccc(S(=O)(=O)/N=C2/C=C(Sc3ncn[nH]3)C(=O)c3ccccc32)cc1,< 0.4 µM
11,CC(/C=C1\SC(=S)N(NS(=O)(=O)c2ccc(C)cc2)C1=O)=C\c1ccccc1,5.66 µM
12,COCCN1Cc2cccc(C(=O)Nc3cccc(C)c3C)c2C1=O,> 54 µM
13,c1cncc(C2Nc3cccc4cccc(c34)N2)c1,7.27 µM
14,COc1ccccc1C(=O)N=Nc1c(O)[nH]c2ccc([N+](=O)[O-])cc12,4.72 µM
15,Cc1csc(NC(=O)c2cc(-c3ccco3)nc3ccccc23)n1,2.91 µM
16,COc1cnn(-c2ccccc2)c(=O)c1SCc1ccc(Cl)cc1Cl,> 54 µM
17,CCc1ccc(-n2cccc2/C=C2/C(=N)N3C(=NC2=O)SN=C3S(C)(=O)=O)cc1,4.43 µM
18,O=C(CCO)c1ccc(O)cc1,3.19 µM
19,CNCc1ccccc1OCc1ccccc1F,5.27 µM
20,Cc1c(O)cc2c(c1O)C(=O)CC(c1ccc(O)cc1)O2 (configuration not stated),2.84 µM
21,O=C(N/N=C/c1ccc(-c2ccc(S(=O)(=O)Nc3ncccn3)cc2)o1)c1cc2ccccc2cc1O,1.43 µM
22,CCOc1ccc(C(=O)Nc2cc(NC(=O)c3ccc(OCC)c(Cl)c3)cc(C(=O)O)c2)cc1Cl,16.5 µM

row,Structure (SMILES),IC50
1,CN(C)c1ccc(N=c2sc3ccccc3n2C)cc1,< 0.4 µM
2,Cc1cc2nc(/C=C/c3nc4cc(C)c(C)cc4[nH]3)[nH]c2cc1C,4.54 µM
3,Cc1cc(-c2nc3c4c5c(sc4[nH]c(=O)n3n2)CCC5)c(C)o1,< 0.4 µM
4,CC(C(=O)Nc1cc([N+](=O)[O-])ccc1Cl)N1CCN(c2ccc(O)cc2)CC1 (configuration not stated),> 54 µM
5,N#CC(C#N)=NNc1ccc(S(N)(=O)=O)cc1,1.91 µM
6,O=C(O)c1ccc(N2C(=O)/C(=C/c3ccc(-c4ccc([N+](=O)[O-])cc4)o3)C=C2c2ccccc2)cc1,< 0.4 µM
7,Cc1cccc(C(=O)NC(=S)NNC(=O)c2ccc(Cl)cc2)c1,> 54 µM
8,COc1cc(/C=N\Nc2nc(-c3ccc(C)cc3)c(NC(C)=O)s2)ccc1O,> 54 µM
9,COc1ccc(-c2csc(Nc3ccccc3)n2)cc1,> 54 µM
10,Cc1cccc(N=C2NC(=O)/C(=C/C=C/c3ccco3)S2)c1,13.5 µM
11,CC1=NN(c2cccc(C(=O)O)c2)C(=O)/C1=C\C=C\c1ccco1,4.5 µM
12,O=[N+]([O-])c1ccc2[nH]c(O)c(N=NC(=S)Nc3cccnc3)c2c1,8.86 µM
13,Cc1ccc(/C=C2\SC(=S)N(Cc3ccccc3)C2=O)o1,> 54 µM
14,O=C(NC1CCCCC1)c1sc(=S)n2c1[nH]c(=O)c1ccccc12,15.9 µM
15,COc1ccc(O)c(C(=O)c2cc(SCC(=O)O)c3nc4sc5c(c4c(=O)n3c2)CCCC5)c1,< 0.4 µM
16,CCN(CC)C(=O)CC(c1cc(OC)c(OC)c(OC)c1)c1c(OC)cc(OC)c2c(-c3ccccc3)cc(=O)oc12 (configuration not stated),4.05 µM
17,CC(C)N1CCc2c(sc(NC(=O)c3cc4cc([N+](=O)[O-])ccc4s3)c2C(N)=O)C1,3.95 µM
18,O=C(Nc1ccc(S(=O)(=O)Nc2nccs2)cc1)/C(=C/c1ccccc1Cl)NC(=O)c1ccccc1,2.93 µM
19,CCN(CC)c1ccc(/C=N/N2CCN(Cc3ccccc3)CC2)cc1,> 54 µM
